pIC50: −log10 of the molar value.
Molecular target: FGFR1 kinase (FGFR1 kinase enzyme system, Promega V9321) (Homo sapiens, UniProt P11362)
Assay: ADP-Glo luminescence kinase assay
Type: biochemical

FGFR1 kinase (FGFR1 kinase enzyme system, Promega V9321), sequence (P11362 398-822 limits assumed): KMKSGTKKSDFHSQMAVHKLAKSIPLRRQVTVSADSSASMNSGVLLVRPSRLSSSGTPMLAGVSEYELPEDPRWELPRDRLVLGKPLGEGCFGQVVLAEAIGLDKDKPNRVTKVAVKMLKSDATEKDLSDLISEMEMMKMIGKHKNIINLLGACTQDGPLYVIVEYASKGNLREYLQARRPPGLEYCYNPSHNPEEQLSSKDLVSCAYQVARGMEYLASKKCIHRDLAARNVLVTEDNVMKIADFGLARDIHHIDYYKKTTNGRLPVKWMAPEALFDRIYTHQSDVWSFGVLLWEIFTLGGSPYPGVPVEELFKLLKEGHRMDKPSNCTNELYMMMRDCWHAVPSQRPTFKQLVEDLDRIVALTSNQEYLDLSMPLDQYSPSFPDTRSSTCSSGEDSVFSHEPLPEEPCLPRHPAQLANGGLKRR

Structure (SMILES): CCN(CC)CCCC(C)Nc1c2ccc(Cl)cc2nc2ccc(OC)cc12 (stereo not shown) [Quinacrine]
- pIC50: 5.98

Source: paper doi:10.1101/2021.12.02.470934v1 (biorxiv, 2021)
